The record followed here is US20140127231A1, “p38 MAPK Pathway Inhibitors as Female-Specific Therapeutics” (UNIVERSITY OF VERMONT, priority 2012, published 2014).

For the test, the system named is TH1-mediated passive EAE. In words: Passive EAE induced by TH1 cells. The following applies: polarized DLN cells transferred into naïve recipients, listed as SB. Format: in vivo, mice. From the text:
FIG. 5A is a schematic that illustrates that protocol of inducing passive EAE.
Based on this and the observation that IL-17 is not absolutely required for EAE progression (Haak, S et al., 2009, J Clin Invest 119:61-69), it is possible that SB prevents EAE by inhibiting production of additional key pathogenic factors. Further, it is shown that TH1-mediated passive EAE is prevented by inhibition of p38 MAPK (FIG. 5). In these experiments, donor animals were immunized with MOG35-55, DLN cells were isolated at D10 and cultured under polarizing conditions, and cells were transferred into naïve recipients. […] As such, complementary genomic and proteomic approaches were used to identify these factors, which in the future may provide novel druggable targets for treatment of autoimmune disease. Because such approaches typically yield a large number of potential candidates, a prioritizing/“funneling” scheme was constructed to rule out irrelevant hits in screens. In particular, the sexual dimorphism in response to SB serves as a useful discriminatory tool in this regard.

“Also recorded” adds a separate entry of the source.

Turning to `C[S+]([O-])c1ccc(-c2nc(-c3ccncc3)c(-c3ccc(F)cc3)[nH]2)cc1` (centres unmarked) [SB203580], the “Cytokine production / inflammatory response” value is given as “decreased cytokine production; also recorded: reduces the inflammatory response” and the EAE severity result was “reduces EAE severity; also recorded: prevents passive EAE induced by TH1 cells”.
